Test results taken from paper PMC4980666, “N-acylhydrazone inhibitors of influenza virus PA endonuclease with versatile metal binding modes” (Scientific Reports, 2016).

Experiments:
[1] = tested on: influenza virus endonuclease; conditions: read-out: IC50 in enzymatic assays; cited from earlier work
[2] = molecular target: influenza virus vRNPs reconstituted in HEK293T cells (Influenza A virus, UniProt P03433); experiment: vRNP reconstitution assay in HEK293T cells; assay type: cell-based; conditions: for EC50: read-out: vRNP reconstitution assay Activity EC50; for selectivity index (ratio of CC50 to EC50): vRNP assay, HEK293T
in vitro [3] = conditions: human, vRNP reconstitution assay Cytotoxicity CC50
in vitro [4] = conditions: dog
[5] = tested on: influenza A virus (strain A/PR/8/34); experiment: microbe, parasite or virus in culture; assay type: cell-based; conditions: MDCK cells; for EC90 / EC99: Influenza A virus, PR/8, 24 h, qPCR; for EC90: 1-log10 reduction in virus titer, read-out: Virus yield assay Antiviral activity EC90; for EC99: 2-log10 reduction in virus titer, read-out: Virus yield assay Antiviral activity EC99
[6] = tested on: untransfected HEK293T cells; conditions: human, 24 h, 200 μM

Row | Compound | IC50 [1] [µM] | EC50 [2] [µM] | CC50 at 24 h (in vitro [3]) [µM] | selectivity index (ratio of CC50 to EC50) [2] | CC50 at 24 h (in vitro [4]) [µM] | EC90 [5] [µM] | EC99 [5] [µM] | SI (selectivity index, ratio between CC50 and EC90) [5] | difference between EC50 in the vRNP assay and EC90 in the virus yield assay [2] [fold] | cytotoxicity in the vRNP assay [6]
1 | O=c1[nH]c(-c2ccc(-c3nnn[nH]3)cc2)ncc1O [2-(4-(1H-tetrazol-5-yl)phenyl)-5-hydroxypyrimidin-4(3H)-one] | 0.15 | – | – | – | – | – | – | – | – | –
2 | NC(=O)N/N=C/c1cccc(O)c1O [Compound 1, N’-(2,3-dihydroxybenzylidene)-semicarbazide] | – | 107 | > 200 | – | – | – | – | – | – | –
3 | COc1cccc(/C=N/NC(N)=O)c1O [Compound 2] | – | > 100 | > 200 | – | – | – | – | – | – | –
4 | CCCCCCCC(=O)N/N=C/c1cccc(O)c1O [Compound 3] | – | 5.9 | < 50 | below 8 | > 200 | – | – | – | – | –
5 | CCCCCCCC(=O)N/N=C/c1cccc(OC)c1O [Compound 4] | – | 6.3 | < 50 | below 8 | > 200 | – | – | – | – | –
6 | O=C(N/N=C/c1cccc(O)c1O)c1ccccc1 [Compound 5] | – | 2.6 | – | below 8 | ≥ 146 | > 25 | > 25 | – | – | –
7 | COc1cccc(/C=N/NC(=O)c2ccccc2)c1O [Compound 6] | – | 15 | – | below 8 | > 200 | > 50 | > 50 | – | – | –
8 | O=C(N/N=C/c1cccc(O)c1O)c1ccccc1O [Compound 7] | – | 3.2 | – | below 8 | > 200 | 100 | 172 | >2.0 | ≥ 8 | –
9 | COc1cccc(/C=N/NC(=O)c2ccccc2O)c1O [Compound 8] | – | 1.9 | – | below 8 | > 200 | > 12.5 | > 12.5 | – | – | –
10 | O=C(N/N=C/c1cc(O)c(O)cc1O)c1ccccc1O [Compound 9] | – | 5.5 | > 200 | – | > 200 | 5.3 | 16 | >38 | – | –
11 | O=C(N/N=C/c1c(O)cc(O)cc1O)c1ccccc1O [Compound 10] | – | 0.4 | 132 | – | 111 | 8.5 | 14 | – | ≥ 8 | –
12 | O=C(N/N=C/c1cc(O)c(O)c(O)c1)c1ccccc1O [Compound 11] | – | 5.6 | > 200 | – | > 200 | 12 | 30 | >17 | – | –
13 | COc1cc(C(=O)N/N=C/c2cc(O)ccc2O)cc(OC)c1OC [Compound 12] | – | 20 | 39 | – | > 200 | > 12.5 | > 12.5 | – | – | –
14 | O=C(N/N=C/c1ccccc1)c1cc(O)c(O)c(O)c1 [Compound 13] | – | 6.3 | > 200 | – | > 200 | 34 | 71 | >5.9 | – | –
15 | O=C(N/N=C/c1ccccc1O)c1cc(O)c(O)c(O)c1 [Compound 14] | – | 2.3 | > 200 | – | > 200 | 37 | 63 | >5.4 | ≥ 8 | –
16 | O=C(N/N=C/c1cc(O)ccc1O)c1cc(O)c(O)c(O)c1 [Compound 15] | – | 14 | > 200 | – | ≥ 172 | 7.5 | 18 | ≥23 | – | –

Row | Compound | IC50 [1] [µM] | EC50 [2] [µM] | CC50 at 24 h (in vitro [3]) [µM] | selectivity index (ratio of CC50 to EC50) [2] | CC50 at 24 h (in vitro [4]) [µM] | EC90 [5] [µM] | EC99 [5] [µM] | SI (selectivity index, ratio between CC50 and EC90) [5] | difference between EC50 in the vRNP assay and EC90 in the virus yield assay [2] [fold] | cytotoxicity in the vRNP assay [6]
17 | COc1ccc(O)c(/C=N/NC(=O)c2cc(O)c(O)c(O)c2)c1 [Compound 16] | – | 5.2 | > 200 | – | > 200 | 28 | 67 | >7.1 | – | –
18 | O=C(N/N=C/c1ccc(O)cc1O)c1cc(O)c(O)c(O)c1 [Compound 17] | – | 7.1 | > 200 | – | > 200 | 8.1 | 21 | >25 | – | –
19 | O=C(N/N=C/c1cccc(O)c1O)c1cc(O)c(O)c(O)c1 [Compound 18] | – | 3.3 | > 200 | – | > 200 | 2.2 | 6.2 | >91 | – | not cytotoxic at 200 μM
20 | COc1cccc(/C=N/NC(=O)c2cc(O)c(O)c(O)c2)c1O [Compound 19] | – | 5.7 | > 200 | – | > 200 | 26 | 53 | >7.7 | – | not cytotoxic at 200 μM
21 | O=C(N/N=C/c1ccc(O)c(O)c1O)c1cc(O)c(O)c(O)c1 [Compound 20] | – | 2.2 | > 200 | – | > 200 | 11 | 35 | >18 | – | –
22 | O=C(N/N=C/c1cc(O)c(O)cc1O)c1cc(O)c(O)c(O)c1 [Compound 21] | – | 2.5 | > 200 | – | > 200 | 3.6 | 8.3 | >56 | – | –
23 | O=C(N/N=C/c1c(O)cc(O)cc1O)c1cc(O)c(O)c(O)c1 [Compound 22] | – | 0.42 | > 200 | – | > 200 | 3.4 | 7.4 | >59 | ≥ 8 | –
24 | O=C(N/N=C/c1cc(O)c(O)c(O)c1)c1cc(O)c(O)c(O)c1 [Compound 23] | – | 3.1 | > 200 | – | > 200 | 3.5 | 11 | >57 | – | –
25 | O=C(N/N=C/c1ccccn1)c1cc(O)c(O)c(O)c1 [Compound 24] | – | 25 | > 200 | – | > 200 | 26 | 58 | >7.7 | – | –
26 | O=C(N/N=C/c1ccc[nH]1)c1cc(O)c(O)c(O)c1 [Compound 25] | – | 4.1 | > 200 | – | > 200 | 70 | 132 | >2.9 | ≥ 8 | –
27 | O=C(O)c1ccc(-c2cccc(/C=N/NC(=O)c3cc(O)c(O)c(O)c3)c2)cc1 [Compound 26] | – | 5.5 | > 200 | – | > 200 | 13 | 36 | >15 | – | –
28 | NC(=O)N/N=C/c1cc(O)c(O)c(O)c1 [Compound 27] | – | 21 | > 200 | – | – | – | – | – | – | –
29 | NNC(=O)c1cc(O)c(O)c(O)c1 [Compound 28, 3,4,5-trihydroxybenzohydrazide] | – | 7.2 | > 200 | – | > 200 | 85 | 158 | >2.4 | ≥ 8 | –
30 | O=C(O[C@@H]1Cc2c(O)cc(O)cc2O[C@@H]1c1cc(O)c(O)c(O)c1)c1cc(O)c(O)c(O)c1 [EGCG, epigallocatechin-3-gallate] | 1.9 | – | – | – | – | – | – | – | – | –
31 | CC(C)/C=C1\N=C(CC(C)C)C(=O)N(O)C1=O [Flutimide] | 5.5 | – | – | – | – | – | – | – | – | –
